Laboratory results from ChEMBL document CHEMBL1128249, “2,4-Diamino-5-substituted-quinazolines as inhibitors of a human dihydrofolate reductase with a site-directed mutation at position 22 and of the dihydrofolate reductases from Pneumocystis carinii and Toxoplasma gondii” (J Med Chem, 1995).

Columns and labels:
Dihydrofolate reductase [1] = molecular target: T1, Dihydrofolate reductase (Rattus norvegicus, UniProt Q920D2)
T1 sequence (Q920D2 whole entry): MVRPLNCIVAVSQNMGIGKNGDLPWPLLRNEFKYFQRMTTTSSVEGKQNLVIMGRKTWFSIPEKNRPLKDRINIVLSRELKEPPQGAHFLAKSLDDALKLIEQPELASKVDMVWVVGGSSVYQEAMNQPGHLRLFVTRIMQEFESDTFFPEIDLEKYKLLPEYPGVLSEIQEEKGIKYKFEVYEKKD
Description: Inhibitory activity against rat liver Dihydrofolate reductase

Dihydrofolate reductase [2] = molecular target: T2, Dihydrofolate reductase (Pneumocystis carinii, UniProt P16184)
T2 sequence (P16184 whole entry): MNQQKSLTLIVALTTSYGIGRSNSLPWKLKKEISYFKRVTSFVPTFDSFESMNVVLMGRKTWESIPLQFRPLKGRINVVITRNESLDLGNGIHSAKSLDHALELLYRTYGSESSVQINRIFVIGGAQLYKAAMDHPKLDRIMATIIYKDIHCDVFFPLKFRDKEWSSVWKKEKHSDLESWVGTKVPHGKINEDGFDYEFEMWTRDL
Description: Inhibitory activity against Pneumocystis carinii Dihydrofolate reductase

Dihydrofolate reductase [3] = molecular target: Dihydrofolate reductase (Homo sapiens, UniProt P00374); test: Inhibitory activity against Leu22-Phe mutant human Dihydrofolate reductase
Dihydrofolate reductase [4] = molecular target: T3, Dihydrofolate reductase (Homo sapiens, UniProt P00374); test: Inhibitory compound against Wild-type human DHFR.
T3 sequence (P00374 whole entry): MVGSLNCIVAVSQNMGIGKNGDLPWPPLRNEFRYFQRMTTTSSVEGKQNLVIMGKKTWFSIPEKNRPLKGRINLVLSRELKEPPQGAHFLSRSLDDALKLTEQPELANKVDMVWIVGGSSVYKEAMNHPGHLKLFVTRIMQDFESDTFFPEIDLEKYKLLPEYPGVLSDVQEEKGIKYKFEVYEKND

[5] = molecular target: T4, Bifunctional dihydrofolate reductase-thymidylate synthase (Toxoplasma gondii, UniProt Q07422)
T4 sequence (Q07422 whole entry): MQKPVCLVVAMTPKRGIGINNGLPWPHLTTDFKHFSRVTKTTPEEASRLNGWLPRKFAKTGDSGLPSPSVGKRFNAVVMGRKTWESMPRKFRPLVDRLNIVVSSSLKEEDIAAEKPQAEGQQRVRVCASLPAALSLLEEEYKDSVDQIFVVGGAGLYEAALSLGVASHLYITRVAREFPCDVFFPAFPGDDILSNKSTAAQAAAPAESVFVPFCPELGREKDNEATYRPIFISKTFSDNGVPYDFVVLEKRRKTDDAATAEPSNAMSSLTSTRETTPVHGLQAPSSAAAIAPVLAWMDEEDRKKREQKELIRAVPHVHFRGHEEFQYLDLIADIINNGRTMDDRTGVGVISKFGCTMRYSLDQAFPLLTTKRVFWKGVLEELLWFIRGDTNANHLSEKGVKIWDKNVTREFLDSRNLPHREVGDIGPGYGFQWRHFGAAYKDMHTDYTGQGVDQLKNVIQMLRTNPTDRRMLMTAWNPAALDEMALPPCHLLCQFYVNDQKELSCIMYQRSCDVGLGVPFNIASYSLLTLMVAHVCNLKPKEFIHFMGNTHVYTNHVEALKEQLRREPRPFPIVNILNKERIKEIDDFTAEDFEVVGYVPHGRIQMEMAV
Description: Inhibitory activity against Toxoplasma gondii Dihydrofolate reductase

Dihydrofolate reductase [6] = molecular target: T3, Dihydrofolate reductase; test: Inhibitory activity against Wild-type human DHFR

| SMILES | IC50 (Dihydrofolate reductase [1]) [nM] | IC50 (Dihydrofolate reductase [2]) [nM] | Ki (Dihydrofolate reductase [3]) [nM] | Ki (Dihydrofolate reductase [4]) [nM] | IC50 [5] [nM] | Ki (Dihydrofolate reductase [6]) [nM] |
| --- | --- | --- | --- | --- | --- | --- |
| COc1cc(N(C)Cc2cccc3nc(N)nc(N)c23)cc(OC)c1OC | 53000 | > 20000 | 49 | > 500 | > 20000 |  |
| COc1ccc(OC)c(C#Cc2cccc3nc(N)nc(N)c23)c1 | > 18000 | > 18000 | 140 | > 500 | > 18000 |  |
| Nc1nc(N)c2c(CNc3ccc(C(=O)NC(CCC(=O)O)C(=O)O)cc3)cccc2n1 (centres undefined) |  |  | 2.7 |  |  | 0.54 |
| Nc1nc(N)c2c(/C=C/c3ccccc3)cccc2n1 | 1500 | 10000 | 1.8 |  | 1200 |  |
| COc1cc(NCc2cccc3nc(N)nc(N)c23)cc(OC)c1OC | > 20000 | > 20000 | 310 | > 500 | > 20000 |  |
| Nc1nc(N)c2cc(CNc3ccc(C(=O)NC(CCC(=O)O)C(=O)O)cc3)ccc2n1 (centres undefined) |  |  | 0.01 |  |  | 0.00089 |
| Nc1nc(N)c2c(CCc3ccccc3)cccc2n1 | 510 | 3200 | 2.9 | 23 | 370 |  |
| COc1ccc(OC)c(CCc2cccc3nc(N)nc(N)c23)c1 | 4100 | 19000 | 4.2 | 41 | 5900 |  |
| COc1ccc(OC)c(NCc2cccc3nc(N)nc(N)c23)c1 | > 5000 | > 5000 | 33 |  | > 5000 |  |
| Nc1nc(N)c2c(C#Cc3ccccc3)cccc2n1 | > 30000 | > 30000 | 96.3 |  | > 30000 | > 500 |
| COc1ccc(OC)c(N(C)Cc2cccc3nc(N)nc(N)c23)c1 | 84000 | > 40000 | 250 | > 500 | > 40000 |  |
| COc1cc(CCc2cccc3nc(N)nc(N)c23)cc(OC)c1OC | 3700 | 14000 | 4.3 | 72 | 930 |  |
| COc1ccc(OC)c(Cc2cnc3nc(N)nc(N)c3c2C)c1 [PIRITREXIM] |  |  | 38 |  |  | 33 |
